In paper PMC2362091, “Expression of V1A and GRP receptors leads to cellular transformation and increased sensitivity to substance-P analogue-induced growth inhibition” (British Journal of Cancer, 2005):
≈ marks a conversion by molar mass, not a printed value. Where two headings read alike, the source gives them in different places. Square brackets hold non-standard residues; d marks the D form. Peptide text beside a SMILES is read from it. NMeF = CN[C@@H](Cc1ccccc1)C(=O)O

How the values were obtained:
[1] = system: CHO-V1Ar cells; experiment: cells; assay type: cell-based
Procedure: (§1) In some assays, MTT (3-[4,5-dimethylthiazol-2yl]-2,5-diphenyl tetrazolium bromide) formazan production (Sigma) was used to measure proliferation as per the manufacturer's instructions.
(§2) Figure 4 Effect of neuropeptide on chemosensitivity. Wild-type CHO-K1 cells (left) and cells expressing the V1A (middle) or GRP (right) receptor were plated at a density of 1e^4 cells per well of a 96-well tissue culture plate in DMEM with 10% FCS and incubated overnight 37°C. […] Cell viability was assessed by MTT staining.

[2] = system: untransfected CHO-K1 cells; experiment: Intracellular Ca2+ (FURA-2), untransfected cells; assay type: cell-based; conditions: data not shown
[3] = system: ERK phosphorylation in untransfected CHO cells; experiment: ERK phosphorylation (Western blot), untransfected CHO cells; assay type: cell-based; conditions: data not shown
Procedure: (§3) Quiescent cell cultures in six-well plates were treated as described in figure legends and lysed at 4°C in 0.25 ml lysis buffer containing; 25 mM HEPES pH 7.4, 0.3 M NaCl, 1.5 mM MgCl2, 0.2 mM EDTA, 0.5% Triton X-100, 20 mM β-glycerphosphate, 0.5 mM dithiothreitol, 1 mM sodium orthovanadate and protease inhibitors (Boehringer Mannheim, Sussex, UK; prepared as per the manufacturer's instructions). Lysates were clarified by centrifugation, equilibrated for protein using BCA protein assay reagent (Perbio Science, Cheshire, UK) and denatured by boiling (5 min) in SDS–PAGE loading buffer. In all, 20 μl lysate/lane was resolved on 12% SDS–PAGE gels and electroblotted onto nitrocellulose membranes. Membranes were blocked in 3% bovine serum albumin in PBS containing 0.05% Tween-20. ERK1/2 phosphorylation was determined using 1 : 1000 dilution of the primary antibody followed by the appropriate HRP-labelled goat IgG (DAKO, UK) diluted 1 : 5000. Bands were visualized using enhanced chemiluminescence (ECL plus, Amersham) and quantified using a phosphor imager (Storm).
In this study, ERK activation was measured in CHO cells expressing GRP or V1A receptors in response to the appropriate neuropeptide or substance-P analogue. Activation was estimated in immunoblots from stimulated lysates using a phosphorylation state-specific antibody. […]

[4] = system: ERK phosphorylation in V1A receptor expressing CHO cells; experiment: ERK phosphorylation (Western blot), V1A receptor expressing CHO cells; assay type: cell-based; conditions: for stimulation of ERK: at 50 μM
Procedure: as §3
(§4) In this study, ERK activation was measured in CHO cells expressing GRP or V1A receptors in response to the appropriate neuropeptide or substance-P analogue. Activation was estimated in immunoblots from stimulated lysates using a phosphorylation state-specific antibody. Lysates from quiesced cells stimulated for […] with either neuropeptide or SP-D or SP-G were separated on 12% gels and blotted for pERK2 or total ERK1/2.
Figure 6 (A) ERK phosphorylation by neuropeptides. Quiescent GRP (left) or V1A (right) receptor expressing CHO cells were stimulated for 5 min with neuropeptide at the indicated concentrations. […] Representative Western blots are shown. Bar graphs represent the mean optical density (mean±s.e.m.) of four separate experiments. (B) ERK phosphorylation by substance-P analogues. Quiescent GRP (left) or V1A (right) receptor expressing CHO cells were stimulated for 5 min with SP-D (filled bars) or SP-G (open bars) at the indicated concentrations. […] Representative Western blots are shown. […]

[5] = system: GRPR-transfected CHO-K1 cells; experiment: Aggregation assay (anchorage-independent growth), GRPR-transfected cells; assay type: cell-based; conditions: low adhesion plates, 5% FCS, 7 days, viable cells counted
Procedure: (§5) CHO-K1 cells were suspended in DMEM in the presence of 5% FCS and seeded into low adhesion tissue culture plates on top of a layer (1 ml) of 0.5% agar. […] Cells were maintained in culture for 7 days briefly trypsinised to disaggregate clusters and viable cells counted.
(§6) Figure 3 Effect of SP-D and SP-G on clonal growth. (A) Cells were grown in 0.3% agar with 1% FCS for 8 days in the presence or absence (open bar) of 30 μM SP-D (black bar) or SP-G (grey bar). […] Aggregation assay. (B) Wild-type, GRPR-transfected and V1AR-transfected CHO-K1 cells were plated into low adhesion tissue culture plates on top of a layer of 0.5% agar in DMEM containing 5% FCS at a density of 5 × 10^4 ml^−1 in the presence of varying concentrations of SP-G. Cells were maintained in culture for 7 days, briefly trypsinised to dissagregate clusters and viable cells counted by propidium iodide exclusion.

[6] = system: V1AR-transfected CHO-K1 cells; experiment: Aggregation assay (anchorage-independent growth), V1AR-transfected cells; assay type: cell-based; conditions: low adhesion plates, 5% FCS, 7 days, viable cells counted
Procedure: as §5, §6

[7] = system: V1A receptor expressing CHO-K1 cells; experiment: Clonogenic assay in semisolid media, V1A receptor expressing cells; assay type: cell-based; conditions: 30 μM, 0.3% agar, 1% FCS, 8 days
Procedure: (§7) CHO-K1 (2x10^4) viable cells were mixed with DMEM containing 0.3% agarose in the presence or absence of mediators and layered over a solid base of 0.5% agarose in DMEM in 35 mm plastic dishes. The cultures were incubated at 37°C for 1–10 days, and then stained with 1 mg ml^−1 nitro-blue tetrazolium (NBT, Sigma) overnight at 37°C. Colonies from 10 separate fields were counted using a microscope with a × 4 objective. Cloning efficiency is calculated as the percentage of original number of seeded cells forming colonies of >6 cells.
as §6

[8] = molecular target: T1, human V1A receptor (Homo sapiens, UniProt P37288); experiment: Intracellular Ca2+ (FURA-2), V1A-expressing CHO cells; assay type: cell-based; conditions: in absence of AVP
T1 construct: CHO-K1 cells were transfected with full-length human GRP receptor or human V1A receptor; expressed in transfected cells
Procedure: (§8) Cells were trypsinised and loaded with fura-2-tetraacetoxymethylester AME (FURA-2-AM, 1 μM) in calcium-free Hank's balanced salt solution for 10 min at 37°C. The cells were pelleted and resuspended in 2 ml of Hank's balanced salt solution containing 1.8 mM CaCl2. Fluorescence was recorded in a fluorescence spectrophotometer (Perkin Elmer). Alternate dual wavelength excitation at 380 and 410 nm allowed ratiometric analysis of bound and unbound FURA-2AM when measured at 505 nm. [Ca^2+] was calculated according to the equation [Ca^2+]=K(F−Fmin)/(Fmax−F), where F is the ratio of the unknown sample, Fmax is the ratio after the addition of 0.1% Triton X-100 and Fmin is the ratio after Ca^2+ chelation with 10 mM EGTA. K is the dissociation constant for Fura-2, which is 224 nM.
(§9) Quiescent GRP (A, B) or V1A (C, D) receptor expressing CHO cells were incubated with FURA-2AM for 15 min at 37°C and ratiometric fluorescence monitored at 37°C. […] Concentration–response curves to vasopressin were carried out in control cells and in cells treated with 1 or 10 μM SP-D (C) or SP-G (D). Results are expressed as % maximum control response to neuropeptide and represent the mean±s.e.m. of four experiments.

[9] = system: GRP receptor expressing CHO-K1 cells; experiment: Clonogenic assay in semisolid media, GRP receptor expressing cells; assay type: cell-based; conditions: 30 μM, 0.3% agar, 1% FCS, 8 days
Procedure: as §7, §6

[10] = system: ERK phosphorylation in GRP receptor expressing CHO cells; experiment: ERK phosphorylation (Western blot), GRP receptor expressing CHO cells; assay type: cell-based; conditions: for maximal stimulation of ERK: at 50 μM
Procedure: as §3, §4
Figure 6 (A) ERK phosphorylation by neuropeptides. Quiescent GRP (left) or V1A (right) receptor expressing CHO cells were stimulated for 5 min with neuropeptide at the indicated concentrations. […] Representative Western blots are shown. Bar graphs represent the mean optical density (mean±s.e.m.) of four separate experiments. (B) ERK phosphorylation by substance-P analogues. Quiescent GRP (left) or V1A (right) receptor expressing CHO cells were stimulated for 5 min with SP-D (filled bars) or SP-G (open bars) at the indicated concentrations. […] Representative Western blots are shown. Bar graphs represent the mean optical density (mean±s.e.m.) of four separate experiments.
Figure 7 Effect of pertussis toxin (PTX) on ERK phosphorylation. Confluent cultures of GRP (left) or V1A (right) receptor expressing CHO cells were quiesced overnight in the presence or absence of 100 ng ml^−1 pertussis toxin. Cells were stimulated for 5 min with 30 μM SP-D or SP-G or 1 nM neuropeptide as indicated. […] Representative Western blots are shown.

[11] = molecular target: T2, human GRP receptor (Homo sapiens, UniProt P30550); experiment: Intracellular Ca2+ (FURA-2), CHO-GRP cells; assay type: cell-based; conditions: in absence of GRP
T2 construct: CHO-K1 cells were transfected with full-length human GRP receptor or human V1A receptor; expressed in transfected cells
Procedure: as §8, §9

[12] = system: vector control CHO-K1 cells; experiment: Clonogenic assay in semisolid media, vector control cells; assay type: cell-based; conditions: 30 μM, 0.3% agar, 1% FCS, 8 days
Procedure: as §7, §6

[13] = set-up: method as in Clive et al, 2001; conditions: at therapeutic plasma concentrations; ref Clive et al, 2001; cited from earlier work
[14] = molecular target: T1, human V1A receptor; experiment: Receptor binding, [125I]-AVP, CHO-K1-V1Ar cells; conditions: V1A over GRP receptor, from Ki
Procedure: CHO-K1 cells were maintained in DMEM supplemented with 10% (v v^−1) foetal bovine serum (heat-inactivated at 57°C for 1 h) 50 U ml^−1 penicillin, 50 μg ml^−1 streptomycin and 5 μg ml^−1 L-glutamine in a humidified atmosphere of 5% CO2:95% air at 37°C. CHO-K1 cells were transfected with full-length human GRP receptor or human V1A receptor using lipofectamine plus (Invitrogen) as per the manufacturer's instructions. Stable cell cultures were maintained in the presence of 400 μg ml^−1 G418-sulphate.
The binding parameters Kd and Bmax were calculated from competition binding isotherms with unlabelled ligand ([DeBlasi et al, 1989]).

[15] = system: CHO-GRPr cells; experiment: Chemosensitivity, MTT assay, GRPr cells; assay type: cell-based
Procedure: as §1, §2

[16] = system: CHO-WT cells; experiment: Chemosensitivity, MTT assay, wild-type cells; assay type: cell-based; conditions: 48 h, absence of serum; read-out: IC50, inhibition of proliferation (MTT)
Procedure: as §1, §2

[17] = 48 h, absence of serum, read-out: IC50, inhibition of proliferation (MTT)
[18] = 48 h serum-free, no neuropeptide, read-out: IC50 (MTT), control cells of neuropeptide protection experiment

T1 sequence (P37288 whole entry): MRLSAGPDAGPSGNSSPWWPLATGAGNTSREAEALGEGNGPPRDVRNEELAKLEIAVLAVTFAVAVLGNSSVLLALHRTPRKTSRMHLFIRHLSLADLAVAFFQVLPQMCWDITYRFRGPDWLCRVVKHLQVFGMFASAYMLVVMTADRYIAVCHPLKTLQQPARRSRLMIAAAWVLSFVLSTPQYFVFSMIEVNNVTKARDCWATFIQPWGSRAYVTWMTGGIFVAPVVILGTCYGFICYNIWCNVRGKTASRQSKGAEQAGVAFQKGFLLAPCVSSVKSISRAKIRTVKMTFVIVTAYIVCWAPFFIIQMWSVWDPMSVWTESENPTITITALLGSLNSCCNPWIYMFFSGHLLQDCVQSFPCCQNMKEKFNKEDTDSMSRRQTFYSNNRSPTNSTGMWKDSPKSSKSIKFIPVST
T2 sequence (P30550 whole entry): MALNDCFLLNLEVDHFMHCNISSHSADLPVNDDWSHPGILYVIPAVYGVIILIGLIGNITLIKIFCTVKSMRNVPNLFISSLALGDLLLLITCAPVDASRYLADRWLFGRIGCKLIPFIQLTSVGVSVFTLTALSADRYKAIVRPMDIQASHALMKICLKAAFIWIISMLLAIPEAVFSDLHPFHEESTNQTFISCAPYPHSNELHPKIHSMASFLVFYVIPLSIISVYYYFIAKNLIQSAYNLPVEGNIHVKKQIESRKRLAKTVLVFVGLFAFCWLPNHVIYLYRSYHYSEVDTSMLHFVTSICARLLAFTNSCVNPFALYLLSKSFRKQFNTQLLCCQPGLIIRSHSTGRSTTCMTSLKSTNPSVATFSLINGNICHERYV

With `NC(=O)CC[C@@H]1NC(=O)[C@H](Cc2ccccc2)NC(=O)[C@H](Cc2ccc(O)cc2)NC(=O)[C@@H](N)CSSC[C@@H](C(=O)N2CCC[C@H]2C(=O)N[C@@H](CCCN=C(N)N)C(=O)NCC(N)=O)NC(=O)[C@H](CC(N)=O)NC1=O` [AVP, arginine vasopressin] the “increase in MTT accumulation compared to control cells” value ([1]; 50 nM neuropeptide, at 40 μg ml^−1 etoposide, 48 h) was 92%.
In the case of `CSCC[C@H](NC(=O)[C@H](CC(C)C)NC(=O)[C@H](Cc1c[nH]cn1)NC(=O)CNC(=O)[C@@H](NC(=O)[C@H](C)NC(=O)[C@H](Cc1c[nH]c2ccccc12)NC(=O)[C@H](Cc1c[nH]cn1)NC(=O)[C@H](CC(N)=O)NC(=O)CNC(=O)[C@H](CCCNC(=N)N)NC(=O)[C@@H]1CCCN1C(=O)[C@H](Cc1ccc(O)cc1)NC(=O)[C@H](CCSC)NC(=O)[C@H](CCCCN)NC(=O)[C@@H](NC(=O)[C@H](CC(C)C)NC(=O)[C@@H](NC(=O)[C@@H](NC(=O)CNC(=O)CNC(=O)CNC(=O)[C@H](C)NC(=O)[C@@H]1CCCN1C(=O)[C@H](CC(C)C)NC(=O)[C@@H]1CCCN1C(=O)[C@@H](N)C(C)C)[C@@H](C)O)C(C)C)[C@@H](C)O)C(C)C)C(N)=O` [GRP, gastrin-releasing peptide], the “change in [Ca2+]i” value [2] is reported as “neither GRP nor AVP produced a significant change” and the “stimulation of ERK phosphorylation” value [3] is reported as “Neither AVP nor GRP produced any stimulation”.
In the case of `CC(C)C[C@H](NC(=O)[C@H](CC(C)C)NC(=O)[C@@H](Cc1c[nH]c2ccccc12)NC(=O)[C@H](Cc1ccccc1)NC(=O)[C@@H](Cc1c[nH]c2ccccc12)NC(=O)[C@H](CCC(N)=O)NC(=O)[C@@H](Cc1ccccc1)NC(=O)[C@@H]1CCCN1C(=O)[C@H](CCCCN)NC(=O)[C@@H]1CCCN1C(=O)[C@H](N)CCCNC(=N)N)C(N)=O` [SP-D, [D-Arg^1,D-Phe^5,D-Trp^7,9,Leu^11]-substance-P] (H-[dR]PKP[dF]Q[dW]F[dW]LL-NH2; N-terminus and C-terminus assumed), the “stimulation of ERK” value [4] is reported as 2 fold, the “cell growth in aggregation assay” value [5] is reported as “able to inhibit cell growth” and the “cell growth in aggregation assay” value [6] is reported as “able to inhibit cell growth”. For the same molecule, the colony formation [7] was “significantly reduced colony formation”, the “direct mobilisation of intracellular calcium” value [8] was “did not mobilise intracellular calcium directly” and the colony formation [9] was “significantly reduced colony formation”. The “concentration at which activation of ERK was evident” value [10] was 3 µM, the “effect of pertussis toxin pretreatment on ERK activation by the substance” value ([10]; 100 ng ml^−1 PTX overnight, bombesin, 10 μM SP-D, 1 μM LPA) was “completely abolished” and the “maximal stimulation of ERK” value [10] was 2.8 fold. For the same molecule, the “change in [Ca2+]i on their own” value [11] was “no change” and the cloning efficiency [12] was “no effect”.
For `CSCC[C@H](NC(=O)[C@H](CC(C)C)NC(=O)[C@@H](Cc1c[nH]c2ccccc12)NC(=O)[C@H](Cc1ccccc1)N(C)C(=O)[C@@H](Cc1c[nH]c2ccccc12)NC(=O)[C@@H](N)CCCNC(=N)N)C(N)=O` [SP-G, [Arg^6,D-Trp^7,9,N^mePhe^8]-substance-P (6–11)] (H-R[dW][NMeF][dW]LM-NH2; N-terminus and C-terminus assumed), the “effect of pertussis toxin pretreatment on ERK activation by the substance” value ([4]; 100 ng ml^−1 PTX overnight, AVP, 20 μM SP-G, 1 μM LPA) is given as “completely inhibited”, the “stimulation of ERK” value [4] is given as 4.3 fold and the “toxicity in phase I clinical trial” value [13] is given as “minimal toxicity”. The “cell growth in aggregation assay” value [5] was “able to inhibit cell growth”, the “cell growth in aggregation assay” value [6] was “able to inhibit cell growth” and the colony formation [7] was “significantly reduced colony formation”. The “selectivity for the V1A receptor” value [14] was “six”, the “direct mobilisation of intracellular calcium” value [8] was “did not mobilise intracellular calcium directly” and the colony formation [9] was “significantly reduced colony formation”. For the same molecule, the “maximal stimulation of ERK” value [10] was 2.1 fold, the “change in [Ca2+]i on their own” value [11] was “no change” and the cloning efficiency [12] was “no effect”.
Work on `COc1cc([C@@H]2c3cc4c(cc3[C@@H](O[C@@H]3O[C@@H]5CO[C@@H](C)O[C@H]5[C@H](O)[C@H]3O)[C@H]3COC(=O)[C@H]23)OCO4)cc(OC)c1O` [etoposide] yielded an IC50 [1, 17] of 14.2 ± 4 µg/mL (≈ 24.1 µM), an IC50 [1, 18] of 13 µg/mL (≈ 22.1 µM) and an IC50 [15, 17] of 8.1 ± 2.3 µg/mL (≈ 13.8 µM). The IC50 [15, 18] was 6.3 µg/mL (≈ 10.7 µM) and the IC50 [16] was 12.4 ± 3.1 µg/mL (≈ 21.1 µM).
